From publication PMC9848257, “Design and synthesis of novel rigid dibenzo[b,f]azepines through ring closure technique as promising anticancer candidates against leukaemia and acting as selective topoisomerase II inhibitors and DNA intercalators” (Journal of Enzyme Inhibition and Medicinal Chemistry, 2023)

How the values were obtained:
RPMI-8226 = assay: NCI-60 one-dose screen, RPMI-8226; type: cell-based; details: Homo sapiens; RPMI-8226, leukaemia; single dose 10 μM; read-out: Growth inhibition %
HCT-15 = assay: NCI-60 one-dose screen, HCT-15; type: cell-based; details: Homo sapiens; HCT-15, colon cancer; single dose 10 μM; read-out: Growth inhibition %
MDA-MB-468 = assay: NCI-60 one-dose screen, MDA-MB-468; type: cell-based; details: Homo sapiens; MDA-MB-468, breast cancer; single dose 10 μM; read-out: Growth inhibition %
MOLT-4 = assay: NCI-60 one-dose screen, MOLT-4; type: cell-based; details: Homo sapiens; MOLT-4, leukaemia; single dose 10 μM; read-out: Growth inhibition %
SK-MEL-5 = assay: NCI-60 one-dose screen, SK-MEL-5; type: cell-based; details: Homo sapiens; SK-MEL-5, melanoma; single dose 10 μM; read-out: Growth inhibition %
UACC-62 = assay: NCI-60 one-dose screen, UACC-62; type: cell-based; details: Homo sapiens; UACC-62, melanoma; single dose 10 μM; read-out: Growth inhibition %
HS 578 T = assay: NCI-60 one-dose screen, HS 578 T; type: cell-based; details: Homo sapiens, breast cancer, single dose 10 μM, read-out: Growth inhibition %
HOP-62 = assay: NCI-60 one-dose screen, HOP-62; type: cell-based; details: Homo sapiens; HOP-62, non-small cell lung cancer; single dose 10 μM; read-out: Growth inhibition %
SF-268 = assay: NCI-60 one-dose screen, SF-268; type: cell-based; details: Homo sapiens; SF-268, CNS cancer; single dose 10 μM; read-out: Growth inhibition %
SK-OV-3 = assay: NCI-60 one-dose screen, SK-OV-3; type: cell-based; details: Homo sapiens; SK-OV-3, ovarian cancer; single dose 10 μM; read-out: Growth inhibition %
CCRF-CEM = assay: NCI-60 one-dose screen, CCRF-CEM; type: cell-based; details: Homo sapiens, leukaemia, single dose 10 μM, read-out: Growth inhibition %
PC-3 = assay: NCI-60 one-dose screen, PC-3; type: cell-based; details: Homo sapiens; PC-3, prostate cancer; single dose 10 μM; read-out: Growth inhibition %
TK-10 = assay: NCI-60 one-dose screen, TK-10; type: cell-based; details: Homo sapiens; TK-10, renal cancer; single dose 10 μM; read-out: Growth inhibition %
LOX IMVI = assay: NCI-60 one-dose screen, LOX IMVI; type: cell-based; details: Homo sapiens, melanoma, single dose 10 μM, read-out: Growth inhibition %
SF-295 = assay: NCI-60 one-dose screen, SF-295; type: cell-based; details: Homo sapiens; SF-295, CNS cancer; single dose 10 μM; read-out: Growth inhibition %
ACHN = assay: NCI-60 one-dose screen, ACHN; type: cell-based; details: Homo sapiens, renal cancer, single dose 10 μM, read-out: Growth inhibition %
KM12 = assay: NCI-60 one-dose screen, KM12; type: cell-based; details: Homo sapiens; KM12, colon cancer; single dose 10 μM; read-out: Growth inhibition %
MCF-7 = assay: NCI-60 one-dose screen, MCF-7; type: cell-based; details: Homo sapiens, MCF7; MCF-7, breast cancer; single dose 10 μM; read-out: Growth inhibition %
EKVX = assay: NCI-60 one-dose screen, EKVX; type: cell-based; details: Homo sapiens, non-small cell lung cancer, single dose 10 μM, read-out: Growth inhibition %
DU-145 = assay: NCI-60 one-dose screen, DU-145; type: cell-based; details: Homo sapiens; DU-145, prostate cancer; single dose 10 μM; read-out: Growth inhibition %
OVCAR-3 = assay: NCI-60 one-dose screen, OVCAR-3; type: cell-based; details: Homo sapiens; OVCAR-3, ovarian cancer; single dose 10 μM; read-out: Growth inhibition %
NCI-H322M = assay: NCI-60 one-dose screen, NCI-H322M; type: cell-based; details: Homo sapiens, non-small cell lung cancer, single dose 10 μM, read-out: Growth inhibition %
786-0 = assay: NCI-60 one-dose screen, 786-0; type: cell-based; details: Homo sapiens; 786-0, renal cancer; single dose 10 μM; read-out: Growth inhibition %
UACC-257 = assay: NCI-60 one-dose screen, UACC-257; type: cell-based; details: Homo sapiens; UACC-257, melanoma; single dose 10 μM; read-out: Growth inhibition %
SW-620 = assay: NCI-60 one-dose screen, SW-620; type: cell-based; details: Homo sapiens; SW-620, colon cancer; single dose 10 μM; read-out: Growth inhibition %
NCI/ADR-RES = assay: NCI-60 one-dose screen, NCI/ADR-RES; type: cell-based; details: Homo sapiens, ovarian cancer, single dose 10 μM, read-out: Growth inhibition %
U251 = assay: NCI-60 one-dose screen, U251; type: cell-based; details: Homo sapiens, U-251; U251, CNS cancer; single dose 10 μM; read-out: Growth inhibition %
NCI-H522 = assay: NCI-60 one-dose screen, NCI-H522; type: cell-based; details: Homo sapiens; NCI-H522, non-small cell lung cancer; single dose 10 μM; read-out: Growth inhibition %
SR = assay: NCI-60 one-dose screen, SR; type: cell-based; details: Homo sapiens, leukaemia, single dose 10 μM, read-out: Growth inhibition %
UO-31 = assay: NCI-60 one-dose screen, UO-31; type: cell-based; details: Homo sapiens; UO-31, renal cancer; single dose 10 μM; read-out: Growth inhibition %
MALME-3M = assay: NCI-60 one-dose screen, MALME-3M; type: cell-based; details: Homo sapiens, melanoma, single dose 10 μM, read-out: Growth inhibition %
HOP-92 = assay: NCI-60 one-dose screen, HOP-92; type: cell-based; details: Homo sapiens; HOP-92, non-small cell lung cancer; single dose 10 μM; read-out: Growth inhibition %
HT29 = assay: NCI-60 one-dose screen, HT29; type: cell-based; details: Homo sapiens, HT-29; HT29, colon cancer; single dose 10 μM; read-out: Growth inhibition %
K-562 = assay: NCI-60 one-dose screen, K-562; type: cell-based; details: Homo sapiens, K562; K-562, leukaemia; single dose 10 μM; read-out: Growth inhibition %

SMILES	inhibition at 10 µM (RPMI-8226) [%]	inhibition at 10 µM (HCT-15) [%]	inhibition at 10 µM (MDA-MB-468) [%]	inhibition at 10 µM (MOLT-4) [%]	inhibition at 10 µM (SK-MEL-5) [%]	inhibition at 10 µM (UACC-62) [%]	inhibition at 10 µM (HS 578 T) [%]	inhibition at 10 µM (HOP-62) [%]	inhibition at 10 µM (SF-268) [%]	inhibition at 10 µM (SK-OV-3) [%]	inhibition at 10 µM (CCRF-CEM) [%]	inhibition at 10 µM (PC-3) [%]	inhibition at 10 µM (TK-10) [%]	inhibition at 10 µM (LOX IMVI) [%]	inhibition at 10 µM (SF-295) [%]	inhibition at 10 µM (ACHN) [%]	inhibition at 10 µM (KM12) [%]	inhibition at 10 µM (MCF-7) [%]	inhibition at 10 µM (EKVX) [%]	inhibition at 10 µM (DU-145) [%]	further results
Clc1ccc(-c2nnc(N3c4ccccc4C=Cc4ccccc43)o2)cc1 [Compound 5c, 2-(4-Chlorophenyl)-5-(5H-dibenzo[b,f]azepin-5-yl)-1,3,4-oxadiazole]	19.2	63.5	16.7	20.4	48	31.3	< 10	15.4	24.7	< 10	30.4	44.1	< 10	35.7	29.6	15.5	18.5	35.6	20.8	< 10	inhibition at 10 µM (OVCAR-3): < 10%; inhibition at 10 µM (NCI-H322M): 10.5%; melting point: 174 to 176 °C; inhibition at 10 µM (786-0): < 10%; inhibition at 10 µM (UACC-257): < 10%; inhibition at 10 µM (SW-620): < 10%; inhibition at 10 µM (NCI/ADR-RES): 14.5%; inhibition at 10 µM (U251): 42.6%; inhibition at 10 µM (NCI-H522): 22.2%; inhibition at 10 µM (SR): 67.5%; inhibition at 10 µM (UO-31): 33.8%; inhibition at 10 µM (MALME-3M): < 10%; inhibition at 10 µM (HOP-92): 24%; inhibition at 10 µM (HT29): < 10%; inhibition at 10 µM (K-562): 54%
Cc1ccc(-c2nnc(N3c4ccccc4C=Cc4ccccc43)o2)cc1 [Compound 5d, 2-(5 h-Dibenzo[b,f]azepin-5-yl)-5-(p-tolyl)-1,3,4-oxadiazole]	52	61.1	< 10	21	34.6	20.9	13.2	< 10	10.1	< 10	26.6	41.4	< 10	25.6	22	< 10	13.1	15.7	< 10	< 10	inhibition at 10 µM (OVCAR-3): < 10%; inhibition at 10 µM (NCI-H322M): < 10%; melting point: 239 to 241 °C; inhibition at 10 µM (786-0): < 10%; inhibition at 10 µM (UACC-257): < 10%; inhibition at 10 µM (SW-620): < 10%; inhibition at 10 µM (NCI/ADR-RES): < 10%; inhibition at 10 µM (U251): 31.8%; inhibition at 10 µM (NCI-H522): 17.1%; inhibition at 10 µM (SR): 60.6%; inhibition at 10 µM (UO-31): < 10%; inhibition at 10 µM (MALME-3M): < 10%; inhibition at 10 µM (HOP-92): 14.3%; inhibition at 10 µM (HT29): < 10%; inhibition at 10 µM (K-562): 47.8%
C1=Cc2ccccc2N(c2nnc(-c3ccc4ccccc4c3)o2)c2ccccc21 [Compound 5f, 2-(5 h-Dibenzo[b,f]azepin-5-yl)-5-(naphthalen-2-yl)-1,3,4-oxadiazole]	12.1	57	11.1	16.3	15.8	12.8	< 10	< 10	21.9	< 10	28.2	40.9	20.3	18.7	19.9	10.5	< 10	24.4	28.9	< 10	inhibition at 10 µM (OVCAR-3): 2.22%; inhibition at 10 µM (NCI-H322M): 9.52%; melting point: 201 to 203 °C; inhibition at 10 µM (786-0): < 10%; inhibition at 10 µM (UACC-257): < 10%; inhibition at 10 µM (SW-620): < 10%; inhibition at 10 µM (NCI/ADR-RES): 12.1%; inhibition at 10 µM (U251): 32.3%; inhibition at 10 µM (NCI-H522): 24.2%; inhibition at 10 µM (SR): 58.4%; inhibition at 10 µM (UO-31): 24.7%; inhibition at 10 µM (MALME-3M): < 10%; inhibition at 10 µM (HOP-92): 20.9%; inhibition at 10 µM (HT29): < 10%; inhibition at 10 µM (K-562): 34%
